Earlier results on 1 compound are cited in patent US20260275225A1, “LIQUID ALKYLATED PHENYL-ALPHA-NAP[…] REDUCED AQUATIC TOXICITY” (BASF SE, priority 2023, published 2026).

What is called EC50 is the concentration that produces a half-maximal response.

≈ marks a conversion by molar mass, not a printed value.

The subject of this data set is daphnids. The following applies: OECD Test 202; from commercially available Amine A safety data sheets.

In the case of `c1ccc(Nc2cccc3ccccc23)cc1` [Amine A, n-Phenyl-1-naphthylamine], the EC50 is 0.32 µg/mL (≈ 1.46 µM).
